Data set [1] has as its system methicillin-resistant Staphylococcus aureus (MRSA). The data set is classed as in vivo, Japanese patients. As to conditions: for Clinical success %, Wound or burn: MITT-MRSA, daptomycin 4 mg/kg qd n/N 31/38, vancomycin 1 g bid 11/13, at TOC; for Clinical response, wound or burn: daptomycin 4 mg/kg qd, wound or burn n = 38.
Data set [2] shares this test system. Briefly: EAC-assessed microbiological response at test-of-cure, MITT-MRSA population. The data set is classed as in vivo, Japanese patients. The following applies: daptomycin n/N 0/2, vancomycin 0/1, at TOC.
The next data set in a line: Safety evaluation. The data set is classed as in vivo, Japanese patients. The following applies: for Recipients with CPK levels >200 U/l: human, in vivo; for Maximum CPK level in the recipient with CPK >500 U/l: single patient per group.
In another data set the test system is baseline MRSA isolates. Briefly: microbe, parasite or virus in culture. It is filed as cell-based, Staphylococcus aureus.
Data set [3] is described as follows: Population pharmacokinetics of daptomycin in plasma by baseline renal function. The following applies: 4 mg/kg once daily.
Setting [4] is: 74 baseline MRSA isolates at screening, broth microdilution, CLSI M7-A7.

≈ marks a conversion by molar mass, not a printed value. Like-named read-outs stand apart in the source and are kept apart here.

Turning to `CCCCCCCCCC(=O)N[C@@H](Cc1c[nH]c2ccccc12)C(=O)N[C@H](CC(N)=O)C(=O)N[C@@H](CC(=O)O)C(=O)N[C@@H]1C(=O)NCC(=O)N[C@@H](CCCN)C(=O)N[C@@H](CC(=O)O)C(=O)N[C@H](C)C(=O)N[C@@H](CC(=O)O)C(=O)NCC(=O)N[C@H](CO)C(=O)N[C@@H]([C@H](C)CC(=O)O)C(=O)N[C@@H](CC(=O)c2ccccc2N)C(=O)O[C@@H]1C` [Daptomycin], the “Clinical success %, Wound or burn” value in data set [1] is listed as 81.6%. Further, the figures for the “Clinical response, wound or burn” value in data set [1] (baseline MRSA daptomycin MIC 0.25), in data set [1] (baseline MRSA daptomycin MIC 0.5) and in data set [1] (baseline MRSA daptomycin MIC 1) were 87.5%, 82.4% and 50.0%, respectively. Further, in data set [2], the “Microbiological success %, Other infection” value came out at 0.0%. In the data set “Safety evaluation”, the “Recipients with CPK levels >200 U/l” value is reported as 9.1%. Besides, the “Drug-related serious adverse event (kind)” value in “Safety evaluation” (one patient, just after initial dosing, resolved 4 days after discontinuation) is recorded as “anaphylactic shock”. Further, in “Safety evaluation”, the “Maximum CPK level in the recipient with CPK >500 U/l” value was 2,545 U/l. The MIC90 against baseline MRSA isolates (baseline isolates) was found to be 0.5 µg/mL (≈ 0.309 µM). The MIC range against baseline MRSA isolates (baseline isolates) lay within 0.25 to 1 µg/mL. Besides, the figures for the “Mean CL/wt lower than in patients with normal renal function (CLcr >80 ml/min)” value in data set [3] (mild renal impairment (CLcr 50–80 ml/min)), in data set [3] (moderate renal impairment (CLcr 30 to <50 ml/min)) and in data set [3] (severe renal impairment (CLcr <30 ml/min)) were “approximately 15%”, “approximately 15%” and around 38%, respectively. In data set [3] (one patient with CLcr <30 ml/min), the “AUC relative to patients with normal renal function” value is recorded as “approximately 1.4 times higher”.
As to `CN[C@H](CC(C)C)C(=O)N[C@H]1C(=O)N[C@@H](CC(N)=O)C(=O)N[C@H]2C(=O)N[C@H]3C(=O)N[C@H](C(=O)N[C@H](C(=O)O)c4cc(O)cc(O)c4-c4cc3ccc4O)[C@H](O)c3ccc(c(Cl)c3)Oc3cc2cc(c3O[C@@H]2O[C@H](CO)[C@@H](O)[C@H](O)[C@H]2O[C@H]2C[C@](C)(N)[C@H](O)[C@H](C)O2)Oc2ccc(cc2Cl)[C@H]1O` [Vancomycin, vancomycin], the “Clinical success %, Wound or burn” value in data set [1] stood at 84.6%. For the same molecule, the “Microbiological success %, Other infection” value in data set [2] was 0.0%. In the data set “Safety evaluation”, the “Recipients with CPK levels >200 U/l” value amounted to 9.1% and the “Maximum CPK level in the recipient with CPK >500 U/l” value turned out to be 592 U/l. In addition, in the data set on baseline MRSA isolates (setting [4]), the MIC90 was 1 µg/mL (≈ 0.69 µM) and the MIC range fell in the range of 0.5 to 2 µg/mL.
As for `NCC[C@H](O)C(=O)N[C@@H]1C[C@H](N)[C@@H](O[C@H]2O[C@H](CN)CC[C@H]2N)[C@H](O)[C@H]1O[C@H]1O[C@H](CO)[C@@H](O)[C@H](N)[C@H]1O` [arbecacin], in the data set on baseline MRSA isolates (setting [4]), the MIC range lay within 0.25 to 4 µg/mL. This molecule had an MIC90 in the data set on baseline MRSA isolates (Staphylococcus aureus, MRSA) of 2 µg/mL (≈ 3.62 µM).
In turn, `CC(=O)NC[C@H]1CN(c2ccc(N3CCOCC3)c(F)c2)C(=O)O1` [linezolid] returned an MIC range against baseline MRSA isolates (setting [4]) of 1 to 4 µg/mL. For the same molecule, the MIC90 against baseline MRSA isolates (Staphylococcus aureus, MRSA) came to 2 µg/mL (≈ 5.93 µM).
For the molecule `Cc1onc(-c2ccccc2)c1C(=O)N[C@@H]1C(=O)N2[C@@H]1SC(C)(C)[C@@H]2C(=O)O` [oxacillin], in the data set on baseline MRSA isolates (Staphylococcus aureus, MRSA), the MIC90 is above 128 µg/mL.
In the case of teicoplanin, in the data set on baseline MRSA isolates (setting [4]), the MIC90 amounted to 4 µg/mL and the MIC range fell in the range of 0.25 to 8 µg/mL.

For the origin of these results see article PMC3682108 (Journal of Infection and Chemotherapy, 2012).
